What follows are compounds tested against Programmed cell death protein 1/Programmed cell death 1 ligand 1 (Homo sapiens, UniProt Q15116+Q9NZQ7) (assay: Homogeneous Time-Resolved Fluorescence (HTRF) Binding Assay: 1. The compound was formulated to 10 concentrations with a 3-fold gradient with 100% DMSO.2. The solution of the compound in DMSO was added to Dilute Buffer, mixed thoroughly, then transferred to a 96-well plate.3. PD-L1 was diluted with Dilute Buffer, then added to the above 96-well plate.4. PD-1 was diluted with Dilute Buffer and added to the above 96-well plate, which was then incubated at room temperature for 30 minutes.5. A portion of anti-tag1-Eu and a portion of anti-tag2-XL665 were added to Detection Buffer, mixed thoroughly and transferred to the above 96-well plate.6. The mixture in the above 96-well plate was incubated at room temperature for 1 to 24 hours.7. HTRF values were read with Envision.).
Assay type: protein-complex assay

Chain of Programmed cell death protein 1/Programmed cell death 1 ligand 1 (Q15116 whole entry): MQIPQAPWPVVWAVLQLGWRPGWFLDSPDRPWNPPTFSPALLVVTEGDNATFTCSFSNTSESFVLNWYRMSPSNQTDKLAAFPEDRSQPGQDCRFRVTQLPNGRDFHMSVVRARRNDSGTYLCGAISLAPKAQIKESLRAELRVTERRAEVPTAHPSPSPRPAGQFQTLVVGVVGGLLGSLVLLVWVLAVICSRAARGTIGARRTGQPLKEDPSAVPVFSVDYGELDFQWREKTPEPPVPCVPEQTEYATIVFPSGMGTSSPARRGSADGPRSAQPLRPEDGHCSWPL
Chain of Programmed cell death protein 1/Programmed cell death 1 ligand 1 (Q9NZQ7 whole entry): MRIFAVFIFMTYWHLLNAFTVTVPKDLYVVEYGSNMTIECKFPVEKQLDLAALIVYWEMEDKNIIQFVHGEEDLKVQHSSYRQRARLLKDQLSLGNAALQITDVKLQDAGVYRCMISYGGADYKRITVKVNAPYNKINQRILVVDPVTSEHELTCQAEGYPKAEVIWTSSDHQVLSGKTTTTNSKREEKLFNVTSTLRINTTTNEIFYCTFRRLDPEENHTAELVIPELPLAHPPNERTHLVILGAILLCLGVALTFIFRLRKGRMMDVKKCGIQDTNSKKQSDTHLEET

SMILES | IC50
COc1cc(/C=C/c2cccc(-c3ccccc3)c2C)cc(OC)c1CN[C@@H](C)C(=O)O | 170 nM
COc1cc(/C=C/c2cccc(-c3ccccc3)c2C)cc(OC)c1CN1CCCC[C@H]1C(=O)O | 60 nM
COc1cc(/C=C/c2cccc(-c3ccccc3)c2C)cc(OC)c1CN[C@H](CO)C(=O)O | 80 nM
COc1cc(/C=C/c2cccc(-c3ccccc3)c2C)cc(OC)c1CN[C@@H](CO)C(=O)O | 50 nM

— ChEMBL document CHEMBL5728605, “Aromatic acetylene or aromatic ethylene compound, intermediate, preparation method, pharmaceutical composition and use thereof” (2021)
